# Assay results as given in publication PMC3723356 (Journal of natural products, 2013).
# Target: human δ-opioid receptor (Homo sapiens, UniProt P41143)
# Experiment: [35S]-GTPγS functional assay
# Assay type: biochemical
# Conditions: from [35S]-GTPγS assay
# Sequence of human δ-opioid receptor (P41143 whole entry): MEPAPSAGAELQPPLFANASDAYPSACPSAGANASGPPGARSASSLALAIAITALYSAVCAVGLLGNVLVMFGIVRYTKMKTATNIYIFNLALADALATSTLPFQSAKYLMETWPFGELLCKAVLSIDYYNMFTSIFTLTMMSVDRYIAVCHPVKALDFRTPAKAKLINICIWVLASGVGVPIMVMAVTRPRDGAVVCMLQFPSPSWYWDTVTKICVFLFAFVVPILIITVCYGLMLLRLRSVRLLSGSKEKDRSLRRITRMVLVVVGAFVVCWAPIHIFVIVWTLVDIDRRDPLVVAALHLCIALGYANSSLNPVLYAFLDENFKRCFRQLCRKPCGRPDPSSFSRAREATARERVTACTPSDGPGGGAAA
structure (smiles),measurement,value
"COc1cc(O)c2c(c1)CC(=O)CCCC(=O)CCC[C@@H](C)OC2=O [Compound 4, neocosmosin C]",classification of functional activity at the human δ-opioid receptor,full agonist
